Assays:
YAP [1] = test: csEV-induced nuclear localization of YAP in GR-H1993 cells; format: cell-based
HCT116 cells = test: Antiproliferative screening in HCT116 colon cancer cells; format: cell-based, human; details: medium containing csEV and compound; inhibitory in both HCT116 and LNCaP-SL
YAP [2] = test: Immunocytochemical analysis of YAP expression and nuclear localization; format: cell-based; details: csEV incubation; KRCT-6j given on top of csEV
LNCaP-SL cells [3] = test: csEV-mediated LNCaP-SL transwell migration inhibition; format: cell-based, human; details: csEV as attractant
LNCaP-SL cells [4] = test: Antiproliferative screening in metastatic LNCaP-SL prostate cancer cells; format: cell-based, human; details: medium containing csEV and compound; inhibitory in both HCT116 and LNCaP-SL
[5] = test system: GR-H1993 (gefitinib-resistant-H1993) cells; test: csEV-mediated proliferation of GR-H1993 cells; format: cell-based; details: csEV treatment
GR-H1993 cells = test: GR-H1993 xenograft mouse model; format: in vivo; details: gefitinib 25 mg/kg PO, KRCT-6j 20 mg/kg IP, daily for 28 days, male Athymic BALB/c-nu mice
LNCaP-SL cells [6] = test: LNCaP-SL proliferation with docetaxel in the presence or absence of EV; format: cell-based, human; details: 50 nM docetaxel; EV-containing normal 10% FBS versus 10% FBS without EVs

## Cn1cc(-c2cnc(Nc3cc(Cl)cc(Cl)c3)nc2NC2CCCCC2)cn1 [KRCT-6j, N 4 -Cyclohexyl-N 2-(3,5-dichlorophenyl)-5-(1-methyl-1 H -pyrazol-4-yl)pyrimidine-2,4-diamine]
YAP [1]
  csEV-induced nuclear localization of YAP: inhibited
HCT116 cells
  proliferation inhibitory response, HCT116: both cell inhibitory responses
YAP [2]
  YAP expression and nuclear localization: decreased again
LNCaP-SL cells [3]
  inhibition of csEV-promoted migration of LNCaP-SL cells: inhibited by KRCT-6j in a concentration-dependent manner
LNCaP-SL cells [4]
  proliferation inhibitory response, LNCaP-SL: both cell inhibitory responses
[5]
  proliferation of GR-H1993 cells: inhibit only the proliferative effect of csEV-mediated GR-H1993

## COc1cc2ncnc(Nc3ccc(F)c(Cl)c3)c2cc1OCCCN1CCOCC1 [gefitinib]
GR-H1993 cells
  tumor growth, GR-H1993 xenograft: did not affect tumor growth

## CC(=O)O[C@@]12CO[C@@H]1C[C@H](O)[C@@]1(C)C(=O)[C@H](O)C3=C(C)[C@@H](OC(=O)[C@H](O)[C@@H](NC(=O)OC(C)(C)C)c4ccccc4)C[C@@](O)([C@@H](OC(=O)c4ccccc4)[C@H]21)C3(C)C [docetaxel]
LNCaP-SL cells [6]
  resistance of LNCaP-SL cells to docetaxel: much more resistant to docetaxel
